Test results reported in ChEMBL document CHEMBL5058645, “Data for DCP probe JNJ-6204” (2022).

What was measured:
[1] = target: Dual specificity mitogen-activated protein kinase kinase 2 (Homo sapiens) (UniProt P36507); assay: MEK2(h) Kinase panel; conditions: Compound concentration 1.0 uM, tested as the 2H-labelled form
[2] = target: Phosphatidylinositol 4-phosphate 5-kinase type-1 alpha (Homo sapiens) (UniProt Q99755); assay: PIP5K1a(h) Kinase panel; conditions: Compound concentration 1.0 uM, tested as the 2H-labelled form
[3] = target: Angiopoietin-1 receptor (Homo sapiens) (UniProt Q02763); assay: Tie2 (h) Kinase panel; conditions: Compound concentration 1.0 uM, tested as the 2H-labelled form
Angiopoietin-1 receptor (Homo sapiens), sequence (Q02763 whole entry): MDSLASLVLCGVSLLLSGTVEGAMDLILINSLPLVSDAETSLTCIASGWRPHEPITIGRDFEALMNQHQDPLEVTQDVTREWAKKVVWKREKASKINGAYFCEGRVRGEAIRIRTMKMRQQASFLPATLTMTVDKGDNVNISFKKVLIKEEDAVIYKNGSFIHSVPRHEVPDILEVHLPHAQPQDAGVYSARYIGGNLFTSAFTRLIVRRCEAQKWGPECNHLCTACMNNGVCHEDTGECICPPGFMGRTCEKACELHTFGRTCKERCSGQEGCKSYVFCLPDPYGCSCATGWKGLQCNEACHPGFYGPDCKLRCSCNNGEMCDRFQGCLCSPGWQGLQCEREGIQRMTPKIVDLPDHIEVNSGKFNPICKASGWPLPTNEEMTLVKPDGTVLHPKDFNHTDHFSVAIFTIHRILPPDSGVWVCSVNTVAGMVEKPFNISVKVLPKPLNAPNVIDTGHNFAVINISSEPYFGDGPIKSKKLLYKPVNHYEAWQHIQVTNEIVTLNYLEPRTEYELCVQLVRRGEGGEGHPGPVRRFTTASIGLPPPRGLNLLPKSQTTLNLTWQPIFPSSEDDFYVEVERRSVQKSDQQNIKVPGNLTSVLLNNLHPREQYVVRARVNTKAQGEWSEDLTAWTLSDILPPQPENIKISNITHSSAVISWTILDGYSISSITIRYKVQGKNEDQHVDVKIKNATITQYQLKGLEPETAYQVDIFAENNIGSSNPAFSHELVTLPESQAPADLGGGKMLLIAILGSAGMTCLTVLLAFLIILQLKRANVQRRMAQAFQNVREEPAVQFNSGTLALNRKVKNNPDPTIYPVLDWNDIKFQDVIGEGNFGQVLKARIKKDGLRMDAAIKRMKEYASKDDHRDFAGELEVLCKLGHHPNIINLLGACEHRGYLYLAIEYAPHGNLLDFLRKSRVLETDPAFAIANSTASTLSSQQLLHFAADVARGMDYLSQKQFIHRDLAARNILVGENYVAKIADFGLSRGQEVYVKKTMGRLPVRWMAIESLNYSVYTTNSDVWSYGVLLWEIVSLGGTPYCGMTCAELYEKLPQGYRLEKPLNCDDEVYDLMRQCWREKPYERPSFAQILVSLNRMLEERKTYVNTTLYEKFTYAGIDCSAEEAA

[4] = target: Dual specificity mitogen-activated protein kinase kinase 1 (Homo sapiens) (UniProt Q02750); assay: MEK1(h) Kinase panel; conditions: Compound concentration 1.0 uM, tested as the 2H-labelled form
[5] = target: D(2) dopamine receptor (Homo sapiens) (UniProt P14416); conditions: Compound concentration 10.0 uM, tested as the 2H-labelled form
[6] = target: Casein kinase I isoform delta (Homo sapiens, UniProt P48730); conditions: Compound concentration 1.0 uM
[7] = target: Bone morphogenetic protein receptor type-1B (Homo sapiens) (UniProt O00238); assay: ALK6(h) Kinase panel; conditions: Compound concentration 1.0 uM, tested as the 2H-labelled form
[8] = target: Serine/threonine-protein kinase 32B (Homo sapiens) (UniProt Q9NY57); assay: STK32B(h) Kinase panel; conditions: Compound concentration 1.0 uM, tested as the 2H-labelled form
[9] = target: Vascular endothelial growth factor receptor 1 (Homo sapiens) (UniProt P17948); assay: Flt1(h) Kinase panel; conditions: Compound concentration 1.0 uM, tested as the 2H-labelled form
[10] = target: Hepatocyte growth factor receptor (Homo sapiens) (UniProt P08581); assay: Met(h) Kinase panel; conditions: Compound concentration 1.0 uM, tested as the 2H-labelled form
[11] = target: Testis-specific serine/threonine-protein kinase 2 (Homo sapiens) (UniProt Q96PF2); assay: TSSK2(h) Kinase panel; conditions: Compound concentration 1.0 uM, tested as the 2H-labelled form
[12] = target: Serine/threonine-protein kinase D2 (Homo sapiens) (UniProt Q9BZL6); assay: PKD2(h) Kinase panel; conditions: Compound concentration 1.0 uM, tested as the 2H-labelled form
[13] = target: Cyclin-dependent kinase 16 (Homo sapiens) (UniProt Q00536); assay: CDK16/cyclinY(h) Kinase panel; conditions: Compound concentration 1.0 uM, tested as the 2H-labelled form
[14] = target: Myosin-IIIb (Homo sapiens) (UniProt Q8WXR4); assay: MYO3B(h) Kinase panel; conditions: Compound concentration 1.0 uM, tested as the 2H-labelled form
[15] = target: Serine/threonine-protein kinase Nek11 (Homo sapiens) (UniProt Q8NG66); assay: NEK11(h) Kinase panel; conditions: Compound concentration 1.0 uM, tested as the 2H-labelled form
[16] = target: Fibroblast growth factor receptor 2 (Homo sapiens) (UniProt P21802); assay: FGFR2(h) Kinase panel; conditions: Compound concentration 1.0 uM, tested as the 2H-labelled form
[17] = target: Serine-protein kinase ATM (Homo sapiens) (UniProt Q13315); assay: ATM(h) Kinase panel; conditions: Compound concentration 1.0 uM, tested as the 2H-labelled form
[18] = target: [Pyruvate dehydrogenase (acetyl-transferring)] kinase isozyme 2, mitochondrial (Homo sapiens) (UniProt Q15119); assay: PDHK2(h) Kinase panel; conditions: Compound concentration 1.0 uM, tested as the 2H-labelled form
[19] = target: Serine/threonine-protein kinase 16 (Homo sapiens) (UniProt O75716); assay: STK16(h) Kinase panel; conditions: Compound concentration 1.0 uM, tested as the 2H-labelled form
Serine/threonine-protein kinase 16 (Homo sapiens), sequence (O75716 whole entry): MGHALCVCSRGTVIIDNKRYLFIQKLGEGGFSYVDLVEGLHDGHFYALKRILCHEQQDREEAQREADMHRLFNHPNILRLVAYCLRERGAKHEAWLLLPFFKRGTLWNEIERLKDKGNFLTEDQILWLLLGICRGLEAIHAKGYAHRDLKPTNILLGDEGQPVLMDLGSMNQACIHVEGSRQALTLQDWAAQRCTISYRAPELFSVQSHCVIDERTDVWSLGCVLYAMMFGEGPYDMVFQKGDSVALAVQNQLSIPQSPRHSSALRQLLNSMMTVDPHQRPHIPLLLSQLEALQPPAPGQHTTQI

[20] = target: Homeodomain-interacting protein kinase 4 (Homo sapiens) (UniProt Q8NE63); assay: HIPK4(h) Kinase panel; conditions: Compound concentration 1.0 uM, tested as the 2H-labelled form
[21] = target: Tyrosine-protein kinase ZAP-70 (Homo sapiens) (UniProt P43403); assay: ZAP-70(h) Kinase panel; conditions: Compound concentration 1.0 uM, tested as the 2H-labelled form
[22] = target: Mitogen-activated protein kinase 11 (Homo sapiens, UniProt Q15759); assay: SAPK2b(h) Kinase panel; conditions: Compound concentration 1.0 uM, tested as the 2H-labelled form
[23] = target: Receptor tyrosine-protein kinase erbB-2 (Homo sapiens) (UniProt P04626); assay: ErbB2(h) Kinase panel; conditions: Compound concentration 1.0 uM, tested as the 2H-labelled form
[24] = target: Serine/threonine-protein kinase DCLK1 (Homo sapiens) (UniProt O15075); assay: DCAMKL1(h) Kinase panel; conditions: Compound concentration 1.0 uM, tested as the 2H-labelled form
[25] = target: Phosphatidylinositol 4,5-bisphosphate 3-kinase catalytic subunit alpha isoform (Homo sapiens) (UniProt P42336); assay: PI3 Kinase (p110a/p85a)(h) Kinase panel; conditions: Compound concentration 1.0 uM, tested as the 2H-labelled form
[26] = target: Serine/threonine-protein kinase Nek7 (Homo sapiens) (UniProt Q8TDX7); assay: NEK7(h) Kinase panel; conditions: Compound concentration 1.0 uM, tested as the 2H-labelled form
[27] = target: Tyrosine-protein kinase receptor TYRO3 (Homo sapiens) (UniProt Q06418); assay: Rse(h) Kinase panel; conditions: Compound concentration 1.0 uM, tested as the 2H-labelled form
[28] = target: Serine/threonine-protein kinase 24 (Homo sapiens) (UniProt Q9Y6E0); assay: MST3(h) Kinase panel; conditions: Compound concentration 1.0 uM, tested as the 2H-labelled form
[29] = target: Ephrin type-A receptor 3 (Homo sapiens) (UniProt P29320); assay: EphA3(h) Kinase panel; conditions: Compound concentration 1.0 uM, tested as the 2H-labelled form
[30] = target: Non-receptor tyrosine-protein kinase TYK2 (Homo sapiens) (UniProt P29597); assay: TYK2(h) Kinase panel; conditions: Compound concentration 1.0 uM, tested as the 2H-labelled form
[31] = target: Aurora kinase C (Homo sapiens) (UniProt Q9UQB9); assay: Aurora-C(h) Kinase panel; conditions: Compound concentration 1.0 uM, tested as the 2H-labelled form
Homo sapiens = organism: Homo sapiens; assay: CK2(h) Kinase panel; conditions: Compound concentration 1.0 uM, tested as the 2H-labelled form
[32] = target: Cyclin-dependent kinase 12 (Homo sapiens) (UniProt Q9NYV4); assay: CDK12/cyclinK(h) Kinase panel; conditions: Compound concentration 1.0 uM, tested as the 2H-labelled form
[33] = target: MAP/microtubule affinity-regulating kinase 4 (Homo sapiens) (UniProt Q96L34); assay: MARK4(h) Kinase panel; conditions: Compound concentration 1.0 uM, tested as the 2H-labelled form
[34] = target: LIM domain kinase 2 (Homo sapiens) (UniProt P53671); assay: LIMK2(h) Kinase panel; conditions: Compound concentration 1.0 uM, tested as the 2H-labelled form
LIM domain kinase 2 (Homo sapiens), sequence (P53671 whole entry, looked up, the tested form may be a part): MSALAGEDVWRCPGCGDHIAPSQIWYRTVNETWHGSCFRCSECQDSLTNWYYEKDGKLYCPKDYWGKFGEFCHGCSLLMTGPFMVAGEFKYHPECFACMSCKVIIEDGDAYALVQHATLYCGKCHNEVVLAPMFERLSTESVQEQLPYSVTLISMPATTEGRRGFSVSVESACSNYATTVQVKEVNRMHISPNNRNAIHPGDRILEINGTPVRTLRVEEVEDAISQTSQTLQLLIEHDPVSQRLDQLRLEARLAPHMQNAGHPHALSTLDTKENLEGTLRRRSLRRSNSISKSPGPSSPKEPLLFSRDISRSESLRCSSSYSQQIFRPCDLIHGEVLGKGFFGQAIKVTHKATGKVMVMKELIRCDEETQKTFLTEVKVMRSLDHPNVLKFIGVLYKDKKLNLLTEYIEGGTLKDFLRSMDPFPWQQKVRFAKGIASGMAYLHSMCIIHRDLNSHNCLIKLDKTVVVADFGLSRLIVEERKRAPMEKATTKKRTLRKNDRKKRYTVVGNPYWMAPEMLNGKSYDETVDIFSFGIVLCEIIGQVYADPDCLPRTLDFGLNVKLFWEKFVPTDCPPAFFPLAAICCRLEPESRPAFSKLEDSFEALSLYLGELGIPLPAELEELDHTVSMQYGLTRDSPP

[35] = target: Serine/threonine-protein kinase pim-2 (Homo sapiens) (UniProt Q9P1W9); assay: Pim-2(h) Kinase panel; conditions: Compound concentration 1.0 uM, tested as the 2H-labelled form
[36] = target: Death-associated protein kinase 1 (Homo sapiens) (UniProt P53355); assay: DAPK1(h) Kinase panel; conditions: Compound concentration 1.0 uM, tested as the 2H-labelled form
[37] = target: Serine/threonine-protein kinase Sgk2 (Homo sapiens) (UniProt Q9HBY8); assay: SGK2(h) Kinase panel; conditions: Compound concentration 1.0 uM, tested as the 2H-labelled form
Serine/threonine-protein kinase Sgk2 (Homo sapiens), sequence (Q9HBY8 whole entry): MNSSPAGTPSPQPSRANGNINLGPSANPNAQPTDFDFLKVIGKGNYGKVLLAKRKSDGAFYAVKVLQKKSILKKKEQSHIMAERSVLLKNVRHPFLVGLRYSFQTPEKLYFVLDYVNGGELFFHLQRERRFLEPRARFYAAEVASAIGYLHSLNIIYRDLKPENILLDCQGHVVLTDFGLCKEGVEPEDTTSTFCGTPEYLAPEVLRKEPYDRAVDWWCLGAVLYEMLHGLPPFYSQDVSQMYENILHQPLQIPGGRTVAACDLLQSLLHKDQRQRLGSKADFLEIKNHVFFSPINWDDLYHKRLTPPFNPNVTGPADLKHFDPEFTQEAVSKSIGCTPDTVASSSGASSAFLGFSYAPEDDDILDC

[38] = target: eIF-2-alpha kinase GCN2 (Homo sapiens) (UniProt Q9P2K8); assay: GCN2(h) Kinase panel; conditions: Compound concentration 1.0 uM, tested as the 2H-labelled form
eIF-2-alpha kinase GCN2 (Homo sapiens), sequence (Q9P2K8 whole entry): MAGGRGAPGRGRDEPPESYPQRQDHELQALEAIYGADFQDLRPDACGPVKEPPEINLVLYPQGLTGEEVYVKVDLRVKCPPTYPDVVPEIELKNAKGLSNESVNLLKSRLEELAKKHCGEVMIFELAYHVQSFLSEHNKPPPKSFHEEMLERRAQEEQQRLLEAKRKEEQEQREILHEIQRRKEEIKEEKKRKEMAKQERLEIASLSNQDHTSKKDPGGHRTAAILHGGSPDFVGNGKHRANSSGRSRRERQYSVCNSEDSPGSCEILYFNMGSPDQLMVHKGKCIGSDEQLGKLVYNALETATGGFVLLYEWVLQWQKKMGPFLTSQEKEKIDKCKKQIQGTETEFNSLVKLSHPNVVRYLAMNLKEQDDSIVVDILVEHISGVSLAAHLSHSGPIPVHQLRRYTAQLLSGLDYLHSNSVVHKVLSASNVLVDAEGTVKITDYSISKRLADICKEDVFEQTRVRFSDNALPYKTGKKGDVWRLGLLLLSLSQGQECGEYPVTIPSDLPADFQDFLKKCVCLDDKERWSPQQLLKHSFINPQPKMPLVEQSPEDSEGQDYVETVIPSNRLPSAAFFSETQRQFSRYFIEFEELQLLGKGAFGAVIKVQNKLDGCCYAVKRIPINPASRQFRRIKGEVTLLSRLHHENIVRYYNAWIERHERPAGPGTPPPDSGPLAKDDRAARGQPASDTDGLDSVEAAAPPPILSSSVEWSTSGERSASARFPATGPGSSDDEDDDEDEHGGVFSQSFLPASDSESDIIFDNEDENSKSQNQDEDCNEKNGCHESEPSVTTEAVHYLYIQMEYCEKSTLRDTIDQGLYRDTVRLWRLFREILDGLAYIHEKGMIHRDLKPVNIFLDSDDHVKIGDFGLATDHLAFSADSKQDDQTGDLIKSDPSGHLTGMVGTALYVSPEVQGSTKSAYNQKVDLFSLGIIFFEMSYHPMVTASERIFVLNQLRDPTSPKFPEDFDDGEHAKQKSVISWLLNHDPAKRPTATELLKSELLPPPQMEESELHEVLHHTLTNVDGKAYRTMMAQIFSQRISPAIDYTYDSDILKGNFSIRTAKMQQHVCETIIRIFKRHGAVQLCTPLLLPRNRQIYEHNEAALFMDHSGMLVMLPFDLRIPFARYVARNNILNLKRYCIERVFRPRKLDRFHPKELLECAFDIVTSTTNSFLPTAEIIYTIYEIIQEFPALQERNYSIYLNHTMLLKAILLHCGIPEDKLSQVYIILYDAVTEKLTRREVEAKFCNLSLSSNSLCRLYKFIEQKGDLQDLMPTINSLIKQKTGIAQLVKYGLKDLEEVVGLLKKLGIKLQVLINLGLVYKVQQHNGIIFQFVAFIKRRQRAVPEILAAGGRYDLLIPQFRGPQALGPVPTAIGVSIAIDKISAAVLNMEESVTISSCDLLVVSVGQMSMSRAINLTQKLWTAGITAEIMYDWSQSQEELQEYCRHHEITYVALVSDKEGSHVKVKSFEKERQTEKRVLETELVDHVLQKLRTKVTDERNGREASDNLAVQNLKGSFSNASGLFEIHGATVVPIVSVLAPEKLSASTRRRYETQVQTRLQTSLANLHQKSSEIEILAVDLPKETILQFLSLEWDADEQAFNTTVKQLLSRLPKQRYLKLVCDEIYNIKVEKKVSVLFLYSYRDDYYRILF

[39] = target: Proto-oncogene tyrosine-protein kinase ROS (Homo sapiens) (UniProt P08922); assay: Ros(h) Kinase panel; conditions: Compound concentration 1.0 uM, tested as the 2H-labelled form
[40] = target: Serine/threonine-protein kinase PLK1 (Homo sapiens) (UniProt P53350); assay: Plk1(h) Kinase panel; conditions: Compound concentration 1.0 uM, tested as the 2H-labelled form
[41] = target: Beta-1 adrenergic receptor (Homo sapiens) (UniProt P08588); conditions: Compound concentration 10.0 uM, tested as the 2H-labelled form
Beta-1 adrenergic receptor (Homo sapiens), sequence (P08588 whole entry, looked up): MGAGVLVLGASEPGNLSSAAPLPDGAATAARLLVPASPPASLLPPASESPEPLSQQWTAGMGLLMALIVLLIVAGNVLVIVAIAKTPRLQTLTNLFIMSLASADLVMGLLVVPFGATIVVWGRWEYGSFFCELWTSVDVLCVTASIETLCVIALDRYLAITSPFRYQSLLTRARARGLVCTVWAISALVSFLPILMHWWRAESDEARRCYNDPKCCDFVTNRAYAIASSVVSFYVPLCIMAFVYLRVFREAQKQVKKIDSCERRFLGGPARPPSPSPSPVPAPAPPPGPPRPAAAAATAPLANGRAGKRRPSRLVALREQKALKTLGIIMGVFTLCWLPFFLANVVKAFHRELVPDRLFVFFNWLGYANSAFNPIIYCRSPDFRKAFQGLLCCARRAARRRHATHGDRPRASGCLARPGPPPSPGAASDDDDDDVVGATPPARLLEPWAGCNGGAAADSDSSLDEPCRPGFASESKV

[42] = target: [Pyruvate dehydrogenase (acetyl-transferring)] kinase isozyme 4, mitochondrial (Homo sapiens) (UniProt Q16654); assay: PDHK4(h) Kinase panel; conditions: Compound concentration 1.0 uM, tested as the 2H-labelled form
[43] = target: Serine/threonine-protein kinase Chk1 (Homo sapiens) (UniProt O14757); assay: CHK1(h) Kinase panel; conditions: Compound concentration 1.0 uM, tested as the 2H-labelled form
[44] = target: Proto-oncogene tyrosine-protein kinase Src (Homo sapiens) (UniProt P12931); assay: cSRC(h) Kinase panel; conditions: Compound concentration 1.0 uM, tested as the 2H-labelled form
[45] = target: Serine/threonine-protein kinase PLK3 (Homo sapiens) (UniProt Q9H4B4); assay: Plk3(h) Kinase panel; conditions: Compound concentration 1.0 uM, tested as the 2H-labelled form
[46] = target: Serine/threonine-protein kinase PAK 5 (Homo sapiens) (UniProt Q9P286); assay: PAK5(h) Kinase panel; conditions: Compound concentration 1.0 uM, tested as the 2H-labelled form
[47] = target: Serine/threonine-protein kinase 3 (Homo sapiens) (UniProt Q13188); assay: MST2(h) Kinase panel; conditions: Compound concentration 1.0 uM, tested as the 2H-labelled form
[48] = target: NUAK family SNF1-like kinase 1 (Homo sapiens) (UniProt O60285); assay: ARK5(h) Kinase panel; conditions: Compound concentration 1.0 uM, tested as the 2H-labelled form
[49] = target: Interleukin-1 receptor-associated kinase 4 (Homo sapiens) (UniProt Q9NWZ3); assay: IRAK4(h) Kinase panel; conditions: Compound concentration 1.0 uM, tested as the 2H-labelled form
[50] = target: Serine/threonine-protein kinase Nek1 (Homo sapiens) (UniProt Q96PY6); assay: NEK1(h) Kinase panel; conditions: Compound concentration 1.0 uM, tested as the 2H-labelled form
[51] = target: Cyclin-dependent kinase 7 (Homo sapiens) (UniProt P50613); assay: CDK7/cyclinH/MAT1(h) Kinase panel; conditions: Compound concentration 1.0 uM, tested as the 2H-labelled form
Cyclin-dependent kinase 7 (Homo sapiens), sequence (P50613 whole entry): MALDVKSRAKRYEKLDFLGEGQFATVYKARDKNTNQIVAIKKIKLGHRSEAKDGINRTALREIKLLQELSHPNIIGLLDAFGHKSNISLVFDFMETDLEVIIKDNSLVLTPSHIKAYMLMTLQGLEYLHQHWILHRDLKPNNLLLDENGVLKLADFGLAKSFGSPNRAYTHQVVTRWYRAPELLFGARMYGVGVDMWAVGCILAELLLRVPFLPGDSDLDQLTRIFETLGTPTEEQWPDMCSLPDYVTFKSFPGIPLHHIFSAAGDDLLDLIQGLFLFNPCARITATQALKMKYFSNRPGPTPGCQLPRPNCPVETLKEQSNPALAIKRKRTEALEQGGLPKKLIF

Measured: inhibition

CC1(C)Cn2nc(-c3ccc(F)cn3)c(-c3ccnc4[nH]ncc34)c2CO1
inactive: [1] 4% | [2] -4% | [3] 1% | [4] 4% | [5] 4.12% | [6] 105% | [7] -5% | [8] 0% | [9] 7% | [10] 8% | [11] 11% | [12] 5% | [13] 12% | [14] 12% | [15] 12% | [16] 11% | [17] 3% | [18] 26% | [19] 8% | [20] 8% | [21] 12% | [22] -3% | [23] 9% | [24] 10% | [25] 2% | [26] 5% | [27] 9% | [28] -2% | [29] -6% | [30] -5% | [31] 7% | Homo sapiens 2% | [32] -2% | [33] 4% | [34] -3% | [35] -4% | [36] 10% | [37] 9% | [38] -6% | [39] -2% | [40] 15% | [41] -1.12% | [42] -7% | [43] -6% | [44] 15% | [45] -7% | [46] 2% | [47] 9% | [48] 1% | [49] -7% | [50] 5% | [51] -8%
